# Assay results published in patent US8658672B2, “HIF-1α activating agent” (University of Seoul Foundation of Industrial and Academic …, priority 2006, dated 2014).
# How the values were obtained:
# VEGF = experiment: Effects of CQ and TPEN on the expression of VEGF, a HIF-1α target gene (RT-PCR); assay type: cell-based, human; details: TPEN 5 μM
# Excerpt: ID. […] ID. NO: 2 (5′-[…]-3′). […] ID. […] ID. NO: 4 (5′-[…]-3′).
# HIF-1α and CBP = experiment: Co-immunoprecipitation of HIF-1α with CBP in HepG2 cells; assay type: cell-based, human; details: normoxic, CQ 100 μM, MG132 5 μM 6 hours
# Description: Total cell extract was prepared by the method of Jaakkola, et al (Jaakkola et al., Science 292:468-472, 2001). For immunoprecipitation, 200 μg of samples of whole cell lysates were reacted with 1 μg of anti-mouse IgG (Santa Cruz Biotechnology, USA) and 10 μl of 0.5% ImmunoPure immobilized protein A/G gel (Pierce, USA) for 30 minutes at 4° C. After removing protein A/G gel, the cleared extracts were mixed with 1 μg of anti-CBP antibody (Santa Cruz Biotechnology, USA). After addition of 15 μl of 0.5% ImmunoPure immobilized protein A/G gel, they were left at 4° C. for 16 hours. The immunoprecipitates were pelleted, washed four times with PBS and resuspended in SDS sample buffer. Samples were then boiled for 5 minutes and run on 8% SDS-polyacrylamide gels, and the proteins were transferred to nitrocellulose membranes by semi-dry transfer (Trans-Blot SD, Bio-Red, Hercules, USA). Co-immunoprecipitated proteins were reacted with anti-human HIF-1α antibody (BD, Pharmingen, USA) and/or anti-CBP antibody and visualized by enhanced chemiluminescence, according to the manufacturer's instruction (Amersham, USA), with anti-mouse or anti-rabbit Ig conjugated with horseradish peroxidase (HRP) as a secondary antibody.
# GAL4-HIF-1α = experiment: HIF-1α transactivation, Gal4-driven reporter gene assay in HepG2 cells; assay type: cell-based, human; details: TPEN 5 μM, 16 hours
# Description: Human HepG2 hepatoma cells were cultured at the concentration of 5×10^4, which were transfected with 100 ng of Gal-4-driven reporter plasmid encoding the firefly luciferase gene under the control of the Gal4 binding site together with pGal4/HIF-1α plasmid which expresses HIF-1α linked to the DNA binding domain of the yeast Gal4 protein (amino acids 1-147). The transfected human HepG2 hepatoma cells were incubated in both normoxic and hypoxic conditions and then treated with CQ (10, 50 μM) for 16 hours in normoxic condition. 48 hours after the transfection, luciferase activities were analyzed using the reporter gene assay system (Promega, USA) and normalized by β-galactosidase activities.
# [1] = cited from earlier work
# FIH-1 = FIH-1 (Homo sapiens, UniProt Q9NWT6); experiment: In vitro FIH-1 activity (capture of radio-labeled HIF-1α by GST-CBP); assay type: biochemical; design: histidine tag; made in house; host or cells: E. coli; details: CQ 10 μM and 50 μM; interaction between HIF-1α and CBP as readout
# Description: The human FIH-1 gene (AF395830) was cloned into pET28a vector (Novagen, USA) and FIH-1 was overexpressed in E. coli as a histidine-tagged fusion protein and purified by Ni-affinity chromatography. The fusion protein was purified by gel-filtration chromatography (Hi-Load Superdex 200) and concentrated by ultrafiltration (Choi et al., Mol Pharmacol 68:1803-1809, 2005).
# The resin-bound GST-CBP N-domain (amino acids 1-450) (Kamei et al., Cell 85:403-414, 1996) was then added to 1 μg of each mixture in 500 μl of binding buffer (200 mM Tris-HCl (pH 8.0), 150 mM NaCl, 20 μM ZnCl2, 0.5 mM DTT) and incubation continued for one hour at 4° C. Glutathione-uniflow resin bound protein was washed four times with 1 ml of 0.1% Nondiet P-40 containing binding buffer, and visualized by SDS-PAGE by eluting using SDS sample buffer (Dann et al., Proc Natl Acad Sci USA 99:15351-15356, 2002). The present inventors substituted the asparagine-803 residue of HIF-1α with alanine to generate HIF-1α mutant [HIF-1α-C(N803A)], followed by investigation on FIH-1 activity by the same manner as described above.
# Radio-labeled HIF-1α was reacted with the purified recombinant FIH-1, in the presence or absence of CQ or TPEN. FIH-1 was expected to […] the asparagine-803 residue of HIF-1α and thus inhibit the interaction with CBP binding to HIF-1α transactivation domain (Mahon, P. C. et al., Genes Dev. 15, 2675-2686, 2001; Dannm C. E. R., et al., Proc. Natl. Acad. Sci. USA 99, 15351-15356, 2002; Lando, D., et al., Science 295, 858-861, 2002; Freedman, S. J. et al., Proc. Natl. Acad. Sci. USA 99, 5367-5372, 2002).
# Chain of FIH-1 (Q9NWT6 whole entry, the tested form may be a part): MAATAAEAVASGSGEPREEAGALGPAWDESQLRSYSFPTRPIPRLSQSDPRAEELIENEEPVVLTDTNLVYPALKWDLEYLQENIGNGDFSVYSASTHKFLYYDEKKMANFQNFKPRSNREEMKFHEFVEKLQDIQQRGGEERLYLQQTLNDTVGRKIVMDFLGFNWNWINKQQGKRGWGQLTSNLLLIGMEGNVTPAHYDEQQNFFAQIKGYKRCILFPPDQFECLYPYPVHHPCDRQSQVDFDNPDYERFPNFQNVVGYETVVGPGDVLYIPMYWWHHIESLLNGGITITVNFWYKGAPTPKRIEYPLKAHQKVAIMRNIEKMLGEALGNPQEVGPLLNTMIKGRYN
smiles,measurement,setting,value
"c1ccc(CN(CCN(Cc2ccccn2)Cc2ccccn2)Cc2ccccn2)nc1 [TPEN, tetrakis-(2-pyridylmethyl)ethanediamine]",VEGF expression,"VEGF; HepG2 cells, normoxic, CQ 10, 100 μM",differed in their effects on VEGF expression
same,VEGF expression,"VEGF; SH-SY5Y cells, normoxic condition, CQ 10, 100 μM",reduced VEGF expression
same,VEGF expression,"VEGF; hypoxic condition, 16 hours, CQ 100 μM, SH-SY5Y and HepG2 cells","none of the control, TPEN and CQ increased VEGF expression"
same,interaction of HIF-1α with CBP in cells,HIF-1α and CBP,inhibited the interaction between HIF-1α and CBP
same,transactivation activity of HIF-1α,GAL4-HIF-1α; hypoxic condition,increased HIF-1α activity
same,transactivation activity of HIF-1α,"GAL4-HIF-1α; normoxic condition, CQ 10, 50 μM",not in normoxic condition
same,"pKa value, Ca2+",[1]; Ca^2+,3
same,"pKa value, Fe3+",[1]; Fe^3+,14.4
same,"pKa value, Zn2+",[1]; Zn^2+,15.4
same,FIH-1 activity,FIH-1,did not reduce FIH-1 activity
